# Laboratory results from US4138590A, “Prostaglandin derivatives” (American Home Products Corporation, priority 1977, dated 1979).
# Tests used:
# Human blood platelets = experiment: Blood Platelet Aggregation (ADP induced, modification of Born and Cross); format: cell-based; settings: human PRP, ADP 2-4 μM
# Description: Reference: Modification of Born, G.V.R., and Cross, M. J., J. Physiol., 168, 178-195 (1963).
# Test Object: Human blood platelets.
# Procedure: Platelet aggregation is the initial step in thrombus formation and it is considered that compounds which prevent aggregation or reduce platelet adhesiveness may inhibit the initiation of the arteriosclerotic process. The effect of drugs on aggregation is measured in platelet rich plasma (PRP) containing adenosine diphosphate (ADP) which markedly increases aggregation in vitro and may be a physiological agent for doing so in vivo.
# Human blood is collected from fasted normal blood donors in siliconized 50 ml. Vacutainers that contain 3.8% sodium citrate. Centrifugation at 500 g. for 3 minutes at 5° C. separates the red blood cells from the PRP. The supernatant PRP is pipetted off and the remainder is centrifuged at 1000 g. for 10 minutes at 25° C. to obtain platelet poor plasma for standarization of the automated Payton aggregometer. In the running of the platelet aggregation test a cell containing 1.0 ml. of PRP is stirred at 1,100 rpm and the test compound is added in 0.2 ml. of buffered saline to give an initial concentration of 5 × 10^-3 M, or 5 × 10^-4 M. After 3 minutes, a concentration of ADP predetermined to yield marked platelet aggregation (2 to 4 μM) is added in 0.1 ml. of buffered saline. The curve of light transmission at 610 mμ is followed for 6 minutes. Compounds found to be active at the initial concentration are run at lower concentrations.
# Standard Compound: 2-4 μM ADP-Reference Compound.
# [1] = test system: bronchoconstricting effects of a standard dose of acetylcholine; experiment: Evaluation of Bronchodilator Activity (aerosol inhalation, method of Rosenthale et al.); format: in vivo; settings: guinea pig, acetylcholine i.v. dose producing ca. 30% bronchoconstriction
# Excerpt: In using the compounds of the invention to produce bronchodilating effects in warm-blooded animals, they may be administered in a variety of dosage forms: oral, injectable, and aerosol inhalation. Aerosol inhalation is a preferred method because of its rapid onset of action, great potency, and specificity of action. The particular dosage to obtain the bronchodilating effect will vary with the particular compound employed, the particular animal involved, and the degree of bronchodilation desired. In the guinea pig, by aerosol inhalation, the dose to produce bronchodilation is from about 0.15 micrograms to about 25 micrograms, and preferably from about 0.15 to about 15 micrograms. The bronchodilation produced upon aerosol inhalation can be observed by the method of Rosenthale et al., J. Pharmacol. Exp. Ther., 178, 541 (1971). Using this procedure the following results were obtained:
# *The dose (i.v.) of acetylcholine which produces a ca. 30%
structure (smiles),measurement,setting,value
CCCCC[C@H](O)/C=C/[C@H]1C(=O)C=C(c2ccccc2)[C@@H]1C/C=C\CCCC(=O)O [7-{2β-[(3S)-3-Hydroxy-trans-1-Octenyl]-3-Oxo-5-Phenyl-4-Cyclopenten-1α-yl}-cis-5-Heptenoic Acid],inhibition at 18 µM,Human blood platelets; concentration 1.8 × 10^-5 M,22%
C#CC1=CC(=O)[C@H](/C=C/[C@@H](O)CCCCC)[C@H]1C/C=C\CCCC(=O)O [7-{5β-[(3S)-3-Hydroxy-trans-1-Octenyl]-2-Ethynyl-4-Oxo-2-Cyclopenten-1α-yl}-cis-5-Heptenoic Acid],inhibition at 22 µM,Human blood platelets; concentration 2.2 × 10^-5 M,36%
CCCCC[C@H](O)/C=C/[C@H]1C(=O)C=C(C)[C@@H]1C/C=C\CCCC(=O)O [7-{5β-[(3S)-3-Hydroxy-trans-1-Octenyl]-2-Methyl-4-Oxo-2-Cyclopenten-1α-yl}-cis-5-Heptenoic Acid],% Inhibition of the Bronchoconstricting effects of a standard dose of acetylcholine,[1]; dose 1.5 μg,36%
same,% Inhibition of the Bronchoconstricting effects of a standard dose of acetylcholine,[1]; dose 15 μg,78%
same,inhibition at 0.0057 µM,Human blood platelets; concentration 5.7 × 10^-9 M,56%
